Patent US20040023884A1, “Biologically active peptides from functional domains of bactericidal/permeability-increasing protein and uses thereof” (priority 1993, published 2004)
Ends that are not written are not given here.

How the values were obtained:
C. albicans = assay: Radial diffusion fungicidal assay, Candida albicans; assay type: cell-based; settings: radial diffusion
[1] = system: E. coli 0111:B4 (smooth) bacteria; assay: Radial diffusion bactericidal assay, E. coli 0111:B4; assay type: cell-based; settings: radial diffusion; PROBIT analysis; E. coli O111:B4 (smooth)
[2] = system: rough mutant E. coli J5 bacteria; assay: Radial diffusion bactericidal assay, E. coli J5; assay type: cell-based; settings: for pmol added to well to achieve a 30 mm^2 bactericidal zone, E. coli J5: radial diffusion, PROBIT analysis, E. coli J5 (rough); for fold reduction in bactericidal activity in the radial diffusion assay: alanine variant vs unsubstituted peptide
Method in brief: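 Wells received 5 or 10 μL of BPI fragment, pre-incubated 3 h at 37 °C. The underlayer agarose carried washed log-phase organisms at 4×10^6 CFU/mL.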

E. coli 0113 LPS = assay: Limulus Amoebocyte Lysate (LAL) inhibition assay; assay type: biochemical
Protocol: BPI proteolytic fragments produced according to Example 1 were subjected to a Limulus Amoebocyte Lysate (LAL) inhibition assay to determine LPS binding properties of these fragments. Specifically, each of the fragments were mixed in Eppendorf tubes with a fixed concentration of E. coli 0113 LPS (4 ng/mL final concentration) and incubated at 37° C. for 3 hours with occasional shaking. Addition controls comprising rBPI23 at 0.05 μg/mL were also tested. Following incubation, 360 μL of Dulbecco's phosphate buffered saline (D-PBS; Grand Island Biological Co. (GIBCO), Long Island, N.Y.) were added per tube to obtain an LPS concentration of 200 pg/mL for the LAL assay. Each sample was then transferred into Immulon II strips (Dynatech, Chantilly, Va.) in volumes of 50 μl per well.
Limulus amoebocyte Lysate (Quantitative Chromogenic LAL kit, Whitaker Bioproducts, Inc., Walkersville, Md.) was added at 50 μL per well and the wells were incubated at room temperature for 25 minutes. Chromogenic substrate was then added at a volume of 100 μL per well and was well mixed. After incubation for 20 to 30 minutes at room temperature, the reaction was stopped with addition of 100 μL of 25% (v/v) acetic acid. Optical density at 405 nm was then measured in a multiplate reader (Model Vmax, […], Menlo Park, Calif.) with the results shown in FIG. 2 in terms of percent inhibition of LPS. In this Figure, the filled circle represents rBPI23; the open circle represents Asp-N fragment A3; the x represents Asp-N fragment A2, the filled square represents Asp-N fragment A4; the filled triangle represents Asp-N fragment A1A2; the open square represents Asp-N fragment A6a; the small open triangle represents CNBr fragment C3; and the small filled square represents CNBr fragment C1/C5.

Candida albicans = assay type: cell-based; settings: for MIC (x Fold change in fungicidal activity): alanine variant relative to BPI.13
[3] = 3H-heparin binding assay (affinity and capacity); settings: for Heparin Capacity: heparin bound at saturation; for Kd: read-out: Heparin Affinity
Method in brief: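 Bound 3H-heparin was counted by liquid scintillation after 1 h incubation at 4 °C with fragments immobilised on PVDF-bottomed wells, then washing in blocking buffer. Signal was corrected for BSA-related background, and varying amounts of rBPI23 were used as positive control.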

[4] = alanine variant relative to BPI.2
[5] = alanine variant relative to BPI.13

Sequence	C. albicans: pmol required for 30 mm^2 zone (C. albicans) [pmol]	pmol added to well to achieve a 30 mm^2 bactericidal zone, E. coli O111:B4 [1]	pmol added to well to achieve a 30 mm^2 bactericidal zone, E. coli J5 [2]	LAL / LPS inhibition activity (in words) (E. coli 0113 LPS)	MIC C. alb (Candida albicans) [µg/mL]	MIC (x Fold change in fungicidal activity) (Candida albicans)	Heparin Capacity [3] [ng]	Kd [3] [µM]	activity of position 95 substitution variants (in words) ([2]; activity not further specified)	LAL (relative difference) (E. coli 0113 LPS; [4])	heparin binding capacity, fold lower than the unsubstituted peptide [3] [fold]	HEPKd (x Fold change in activity) ([3]; heparin binding affinity, relative to BPI.2)	LAL (relative difference) (E. coli 0113 LPS; [5])	increase of Kd of heparin binding and heparin capacity ([3]; vs unsubstituted peptide) [%]	fold reduction in bactericidal activity in the radial diffusion assay [2]
ASKVGWLIQLFHKK [BPI.31]	426.21	b (no detectable activity up to 5 μg/well)	937.60 pmol	moderate decrease in LPS-binding activity	6.25	=	205.1	0.252							
IKISGKWKAQARFLK [BPI.24]		27,330.00 pmol	654.60 pmol				427.6	0.165	unexpected increase	= (no difference in the LAL assay)					
IKISGKWKAQKAFLK [BPI.25]		b (no detectable activity up to 5 μg/well)	8,203.50 pmol				107.2	0.347		= (no difference in the LAL assay)	~2	=1.0 x Fold			
IKISGKWKAQKRALK [BPI.26]		b (no detectable activity up to 5 μg/well)	8,709.60 pmol				113.1	0.231		= (no difference in the LAL assay)					
IKISGKWKAQKRFAK [BPI.27]		b (no detectable activity up to 5 μg/well)	5,754.40 pmol				119.8	0.204		= (no difference in the LAL assay)					
IKISGKWKAQKRFLA [BPI.28]		b (no detectable activity up to 5 μg/well)	6,194.40 pmol				156.6	0.267		= (no difference in the LAL assay)					
KAKVGWLIQLFHKK [BPI.32]	293.62	b (no detectable activity up to 5 μg/well)	613.80 pmol	moderate decrease in LPS-binding activity	3.13		217.1	0.34							
KSAVGWLIQLFHKK [BPI.33]	603.44	b (no detectable activity up to 5 μg/well)	575.40 pmol	moderate decrease in LPS-binding activity	6.25	=	230.7	0.492							
KSKAGWLIQLFHKK [BPI.34]	319.13	b (no detectable activity up to 5 μg/well)	916.20 pmol	moderate decrease in LPS-binding activity	6.25	=	205.1	0.518							
KSKVAWLIQLFHKK [BPI.35]	441.79	b (no detectable activity up to 5 μg/well)	263.00 pmol		3.13		406.0	1.08					= (no difference in the LAL assay)	10	
KSKVGALIQLFHKK [BPI.36]	196.96	b (no detectable activity up to 5 μg/well)	1,652.00 pmol	large decrease in LPS-binding activity	6.25	=	80.2	0.379							approximately 5 fold
KSKVGWAIQLFHKK [BPI.37]	252.71	b (no detectable activity up to 5 μg/well)	1,284.00 pmol		6.25	=	136.7	0.189					= (no difference in the LAL assay)		
KSKVGWLAQLFHKK [BPI.38]	390.65	b (no detectable activity up to 5 μg/well)	1,698.20 pmol		6.25	=	194.3	0.579					= (no difference in the LAL assay)		
KSKVGWLIQAFHKK [BPI.40]	253.17	b (no detectable activity up to 5 μg/well)	1,760.10 pmol	large decrease in LPS-binding activity	3.13		160.5	0.547					= (no difference in the LAL assay)		approximately 5 fold
KSKVGWLIQLAHKK [BPI.41]	733.70	b (no detectable activity up to 5 μg/well)	2,465.40 pmol		3.13		119.1	0.469					= (no difference in the LAL assay)		
KSKVGWLIQLFHKA [BPI.44]	577.65		480.80 pmol		6.25	=	335.6	0.579					= (no difference in the LAL assay)		
